In patent US11174223B2, “Compositions, methods, and systems for the synthesis and use of imaging agents” (Lantheus Medical Imaging, Inc., priority 2010, dated 2021):
Structures can show the parent of a compound that is named as a salt. Blank lines part the entries; values can stand above or below the compound they belong to.

How the values were obtained:
[1] = system: norepinephrine transporter (NET), uptake 1; test: Heart uptake in rats after uptake 1 blockade (desipramine) or 6-hydroxydopamine sympathetic denervation; assay type: in vivo; conditions: sympathetic denervated rats
Procedure: (§1) Desipramine, a selective uptake 1 inhibitor, was used to block cardiac uptake 1 in rats (10 mg/kg, ip), rabbits (1 mg/kg iv), and NHPs (0.5 mg/kg, iv). 6-hydroxydopamine, a neurotoxin, was injected to induce sympathetic denervation in rats (100 mg/kg ip for 7 days) and rabbits (25 mg/kg iv on day 1, 2, 7, and 8). Imaging agent-1 heart uptake in comparison with MIBG was assessed by tissue sampling at 60 minutes post imaging agent injection. Imaging was also performed with (2-tert-butyl-4-chloro-5-[4-(2-[^18F]fluoroethoxymethyl)-benzyloxy]-2H-pyridazin-3-1.

[2] = system: norepinephrine transporter (NET), uptake 1; test: Heart uptake in rabbits after uptake 1 blockade (desipramine) or 6-hydroxydopamine sympathetic denervation; assay type: in vivo; conditions: denervated rabbits and uptake 1 blocked rabbits and NHPs
Procedure: (§2) Imaging agent-1 was designed as a substrate for the norepinephrine transporter (NET) to image the cardiac sympathetic nervous system. […] These values were similar to that of MIBG (2.12±0.26 μM and 4.76±0.78 pmol/min/million cells). In animals, tissue biodistribution of imaging agent-1 was assessed by tissue sampling at 15- and 60-minute following administration. Heart uptake was 2.36±0.16 and 2.17±0.12% injected dose per g tissue (% ID/g) in rats and 0.25±0.03 and 0.28±0.03% ID/g in rabbits. In rabbits, desipramine (1 mg/kg) inhibited heart uptake of imaging agent-1 by 68% and ^123I-MIBG uptake by 55% at 1 hour post dose.
as §1

[3] = Cardiac PET imaging in rabbit models of regional and systemic cardiac sympathetic denervation (CSD); assay type: in vivo, rabbits; conditions: rabbits
Procedure: Rabbit models of regional and systemic CSD were used. To develop regional CSD, a median sternotomy was performed and phenol (89% in liquid) was pained on the anterior and posterior walls of the left ventricle. To develop systemic denervation the neurotoxin, 6-hydroxydopamine (25 mg/kg on day 1, 2, 7 and 8), was administered intravenously. Two weeks following these procedures, rabbits were imaged with imaging agent-1 (˜1.5 mCi, i.v.) using a microPET camera for 30 minutes.

[4] = Cardiac PET imaging in rabbit model of regional cardiac sympathetic denervation (RCSD) and re-innervation; assay type: in vivo, rabbits; conditions: all rabbits including those with RCSD regions
Procedure: (§3) Rabbit models of RCSD were developed by applying phenol directly on the surface of the left ventricular wall during a sternotomy. Two and twelve weeks following the procedure, imaging agent-1 cardiac PET imaging (˜1.5 mCi, iv) were performed in these rabbits. The myocardial area with radioactivity ≥50% maximum was quantified as innervated region for comparison. To evaluate susceptibility of arrhythmia in rabbits, dofetilide (10 and 40 μg/kg iv, a delayed IKr inhibitor) induced changes were assessed by measuring ECG including heart rate (HR), QTc interval (corrected by Fridericia method), and frequency of arrhythmia.

[5] = Solubility of salt forms in acetonitrile; assay type: physicochemical; conditions: organic solvent or mixture, read-out: Solubility (Acetonitrile; mg/mL)
Text: (§4) Selected physical properties of the salts of Examples 5-6 and 8-12, determined using established characterization methods, are tabulated below (Table 1).

[6] = Dofetilide induced ECG changes (arrhythmia susceptibility) in RCSD rabbits; assay type: in vivo; conditions: RCSD versus control
Procedure: as §3

[7] = Hygroscopicity of salt forms of imaging agent precursor-1; assay type: physicochemical; conditions: salt form of imaging agent precursor-1
Text: as §4

[8] = Stability of salt forms to GVS and 40° C./75% RH; assay type: physicochemical; conditions: salt form of imaging agent precursor-1
Text: as §4

[9] = Thermal stability of salt forms; assay type: physicochemical; conditions: salt form of imaging agent precursor-1
Text: as §4

NET [10] = molecular target: T1, NET (Homo sapiens, UniProt P23975); test: Effect of heart failure medications on NET mediated imaging agent-1 uptake in SK-N-SH cells; assay type: cell-based; design: endogenous in cells; host or cells: SK-N-SH; conditions: even at the highest concentrations tested (1000 μM)
T1 sequence (P23975 whole entry): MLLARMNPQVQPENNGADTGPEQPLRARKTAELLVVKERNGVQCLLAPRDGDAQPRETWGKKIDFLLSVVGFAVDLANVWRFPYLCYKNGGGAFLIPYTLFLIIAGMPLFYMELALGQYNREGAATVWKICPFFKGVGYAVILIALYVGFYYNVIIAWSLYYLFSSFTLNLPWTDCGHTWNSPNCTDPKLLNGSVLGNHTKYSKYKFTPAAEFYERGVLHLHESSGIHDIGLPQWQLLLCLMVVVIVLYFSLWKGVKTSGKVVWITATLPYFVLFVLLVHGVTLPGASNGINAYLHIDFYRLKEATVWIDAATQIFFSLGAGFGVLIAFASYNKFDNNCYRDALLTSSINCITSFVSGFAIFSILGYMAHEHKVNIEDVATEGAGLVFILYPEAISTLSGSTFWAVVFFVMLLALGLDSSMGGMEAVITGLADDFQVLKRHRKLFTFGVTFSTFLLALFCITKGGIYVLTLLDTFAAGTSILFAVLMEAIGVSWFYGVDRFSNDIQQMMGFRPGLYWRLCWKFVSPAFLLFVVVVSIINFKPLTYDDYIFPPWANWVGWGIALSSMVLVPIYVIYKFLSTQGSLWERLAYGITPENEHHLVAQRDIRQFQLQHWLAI

[11] = molecular target: T2, norepinephrine transporter (NET) (Homo sapiens, UniProt P23975); test: Uptake and uptake kinetics in SH-SY5Y human neuroblastoma cells; assay type: cell-based; conditions: SH-SY5Y cells
T2 construct: endogenous in cells; host or cells: SH-SY5Y
T2 sequence (P23975 whole entry): as above
Procedure: as §2

[12] = molecular target: T3, norepinephrine transporter (NET), uptake 1 (Oryctolagus cuniculus, UniProt G1TDF9); test: Heart uptake in rabbits after uptake 1 blockade (desipramine) or 6-hydroxydopamine sympathetic denervation; assay type: in vivo; conditions: rabbits, desipramine 1 mg/kg, 1 hour post dose
T3 construct: from tissue; host or cells: rabbit heart, in vivo
T3 sequence (G1TDF9 1-617): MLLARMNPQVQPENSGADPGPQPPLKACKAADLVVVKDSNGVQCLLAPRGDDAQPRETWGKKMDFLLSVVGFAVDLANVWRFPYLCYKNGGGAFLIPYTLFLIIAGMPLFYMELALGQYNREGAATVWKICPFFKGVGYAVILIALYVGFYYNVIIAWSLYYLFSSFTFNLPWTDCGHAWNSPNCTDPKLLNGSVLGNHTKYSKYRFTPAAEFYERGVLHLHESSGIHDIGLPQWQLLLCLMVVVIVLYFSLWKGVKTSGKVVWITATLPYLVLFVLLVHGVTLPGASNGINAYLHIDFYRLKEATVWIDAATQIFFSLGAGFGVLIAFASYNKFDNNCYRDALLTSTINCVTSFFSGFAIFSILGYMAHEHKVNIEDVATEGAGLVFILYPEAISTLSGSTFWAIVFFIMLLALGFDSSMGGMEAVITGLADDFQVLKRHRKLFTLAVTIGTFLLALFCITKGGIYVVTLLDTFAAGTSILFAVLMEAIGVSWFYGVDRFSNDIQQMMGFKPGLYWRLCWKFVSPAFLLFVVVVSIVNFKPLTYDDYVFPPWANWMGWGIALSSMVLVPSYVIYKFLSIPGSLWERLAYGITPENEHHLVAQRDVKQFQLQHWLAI
Procedure: as §2, §1

[13] = Heart uptake by tissue sampling in Dahl Salt Sensitive (DSS) rats, a model of heart failure; assay type: in vivo
Procedure: The prognostic value of imaging agent-1 was evaluated in Dahl Salt Sensitive (DSS) rats, a rat model of heart failure (HF), and compared with ^123I-meta-iodobenzylguanidine (^123I-MIBG). DSS rats were fed either a low salt (0.1% as control) or high salt diet (8%) for 5 or 9 weeks. To determine the progression of HF in these rats, plasma norepinephrine levels, and heart and lung weights were measured. Compared to low salt diet groups, DSS rats fed a high salt diet for 5 weeks had marked increases in norepinephrine levels (258±28 vs. 1242±184 pg/mL) and heart to body weight ratio (3.3±0.1 vs. 4.5±0.3 mg/g). By 9 weeks, the norepinephrine levels (656±219 vs. 1508±165 pg/mL) and heart to body weight ratio (3.2±0.1 vs. 6.1±0.3 mg/g) had increased further and the lung to body weight ratio had become elevated (3.9±0.1 vs. 14.0±1.4 mg/g). […] Imaging agent-1 and MIBG heart uptake was examined in early and late stage HF rats by tissue sampling after intravenous administration. The uptake was measured using a gamma counter and expressed as differential absorption ratio (DAR). The imaging agent-1 heart uptake decreased following progression of HF from early to late stage HF (low salt group vs. high salt group: 6.9±0.6 vs. 5.1±0.6 and 8.1±0.2 vs. 3.1±0.2 DAR at 5 and 9 weeks respectively).

NET [14] = molecular target: T1, NET; test: Cell uptake selectivity with and without desipramine in SK-N-SH cells; assay type: cell-based; design: endogenous in cells; host or cells: SK-N-SH
Procedure: (§5) The affinity (Ki) was determined in a competition binding assay by incubating ^19F-imaging agent-1, a cold analog of imaging agent-1, or NE with ^3H-desmethylimipramine in cell membrane overexpressing human NET. The uptake selectivity was assessed by measuring imaging agent-1 or ^3H-NE cell uptake with and without pretreatment of desipramine, a selective NET inhibitor, in SK—N—SH (human neuroblastoma) and PC-12 (rat pheochromocytoma) cells. In SK—NSH cells, the uptake kinetics (Km and Vmax) were evaluated by measuring NET mediated uptake of imaging agent-1 or NE at various concentrations. Imaging agent-1 cardiac image quality was evaluated by PET imaging (˜1.5 mCi, i.v.) in rabbits in the presence and absence of desipramine (1 mg/kg).

NET [15] = molecular target: T4, NET (Rattus norvegicus, UniProt Q63380); test: Cell uptake selectivity with and without desipramine in PC-12 cells; assay type: cell-based
T4 construct: endogenous in cells; host or cells: PC-12
T4 sequence (Q63380 1-617): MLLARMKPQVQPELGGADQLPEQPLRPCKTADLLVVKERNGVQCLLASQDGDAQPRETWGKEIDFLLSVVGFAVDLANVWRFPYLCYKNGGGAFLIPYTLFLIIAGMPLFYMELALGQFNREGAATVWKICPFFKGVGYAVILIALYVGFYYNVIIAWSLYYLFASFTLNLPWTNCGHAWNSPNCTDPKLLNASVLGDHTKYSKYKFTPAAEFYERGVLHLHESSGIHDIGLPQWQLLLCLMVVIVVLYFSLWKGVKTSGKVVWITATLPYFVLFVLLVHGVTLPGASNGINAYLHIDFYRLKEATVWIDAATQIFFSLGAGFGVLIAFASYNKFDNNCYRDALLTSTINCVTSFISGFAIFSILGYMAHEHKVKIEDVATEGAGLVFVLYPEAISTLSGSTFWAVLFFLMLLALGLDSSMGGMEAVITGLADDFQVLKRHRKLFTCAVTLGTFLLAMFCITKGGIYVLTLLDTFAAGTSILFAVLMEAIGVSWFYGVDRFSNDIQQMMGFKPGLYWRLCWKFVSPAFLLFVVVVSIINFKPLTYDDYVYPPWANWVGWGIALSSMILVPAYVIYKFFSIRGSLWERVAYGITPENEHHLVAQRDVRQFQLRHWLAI
Procedure: as §5

NET [16] = molecular target: T1, NET; test: NET mediated uptake kinetics in SK-N-SH cells; assay type: cell-based; design: endogenous in cells; host or cells: SK-N-SH
Procedure: as §5

Compound: CC(C)(C)n1ncc(OCc2ccc(COCC[18F])cc2)c(Cl)c1=O [(2-tert-butyl-4-chloro-5-[4-(2-[^18F]fluoroethoxymethyl)-benzyloxy]-2H-pyridazin-3-1, reference compound]
Cardiac imaging, myocardial activity versus control [1]: comparable myocardial activity | Cardiac imaging, myocardial activity [2]: marked activity reduction | Cardiac perfusion imaging, control versus denervated rabbits [3]: no differences were observed | Perfusion imaging, myocardial distribution [4]: homogeneous myocardial distribution

Compound: CC(=O)O.N=C(N)NCc1ccc(OCCCOS(=O)(=O)c2ccc(Br)cc2)c(Br)c1 [Acetate, 3-(2-Bromo-4-(guanidinomethyl)phenoxy)propyl 4-bromobenzenesulfonate, acetic acid salt]
solubility [5]: 0.4 mg/mL

Compound: N=C(N)NCc1ccc(OCCCOS(=O)(=O)c2ccc(Br)cc2)c(Br)c1.O=C(O)c1ccccc1 [Benzoate, 3-(2-Bromo-4-(guanidinomethyl)phenoxy)propyl 4-bromobenzenesulfonate, benzoic acid salt]
solubility [5]: 1.5 mg/mL

Compound: CN(CCOc1ccc(NS(C)(=O)=O)cc1)CCc1ccc(NS(C)(=O)=O)cc1 [Dofetilide, dofetilide]
Induced QTc prolongation, frequency of premature ventricular contraction, and torsades de pointes ([6]; 10 and 40 μg/kg iv): more prominent in the RCSD group than in control | Induced changes in HR [6]: comparable in the two groups

Compound: Cl.N=C(N)NCc1ccc(OCCCOS(=O)(=O)c2ccc(Br)cc2)c(Br)c1 [Hydrochloride, 3-(2-Bromo-4-(guanidinomethyl)phenoxy)propyl 4-bromobenzenesulfonate, hydrochloric acid salt]
Hygroscopicity [7]: Indicates hydrate | Stability to GVS and 40° C./75% RH [8]: Stable | Thermal stability, First event at [9]: 117 °C

Effect on imaging agent-1 uptake (NET [10]): no effect
Compound: CCCCc1nc(Cl)c(CO)n1Cc1ccc(-c2ccccc2-c2nn[nH]n2)cc1 [Losartan, losartan]

Compound: N=C(N)NCc1cccc(I)c1 [MIBG, ^123I-meta-iodobenzylguanidine]
Km [11]: 2.12 ± 0.26 µM

Compound: N=C(N)NCc1cccc([123I])c1 [MIBG, ^123I-meta-iodobenzylguanidine]
Inhibition of heart uptake by desipramine (uptake 1 blockade) [12]: 55% | Vmax (uptake kinetics) [11]: 4.76±0.78 pmol/min/million cells | Heart uptake, differential absorption ratio (DAR) ([13]; high salt group, 5 weeks (early stage HF)): 3.8±0.5 DAR | Heart uptake, differential absorption ratio (DAR) ([13]; high salt group, 9 weeks (late stage HF)): 2.3±0.3 DAR | Heart uptake, differential absorption ratio (DAR) ([13]; low salt group, 5 weeks): 7.3±0.1 DAR | Heart uptake, differential absorption ratio (DAR) ([13]; low salt group, 9 weeks): 7.9±0.5 DAR

Compound: CS(=O)(=O)O.N=C(N)NCc1ccc(OCCCOS(=O)(=O)c2ccc(Br)cc2)c(Br)c1 [Mesylate, 3-(2-Bromo-4-(guanidinomethyl)phenoxy)propyl 4-bromobenzenesulfonate, methanesulfonic acid salt]
Hygroscopicity [7]: Slight | Stability to GVS and 40° C./75% RH [8]: Stable | Thermal stability, First event at [9]: 152 °C | solubility [5]: 1.28 mg/mL

Compound: NC[C@H](O)c1ccc(O)c(O)c1 [NE, norepinephrine, reference compound]
Inhibition of cell uptake by blockade of NET (desipramine) (NET [14]): 97±1% | Inhibition of cell uptake by blockade of NET (desipramine) (NET [15]): 93±1% | Vmax (NET mediated uptake) (NET [16]): 6.2±0.7 pMol/million cells/min

Compound: N=C(N)NCc1ccc(OCCCOS(=O)(=O)c2ccc(Br)cc2)c(Br)c1 [Phosphate, 3-(2-Bromo-4-(guanidinomethyl)phenoxy)propyl 4-bromobenzenesulfonate, phosphoric acid salt]
Hygroscopicity [7]: Slight | Stability to GVS and 40° C./75% RH [8]: Stable | Thermal stability, First event at [9]: 155 °C | solubility [5]: 0.3 mg/mL

Compound: N=C(N)NCc1ccc(OCCCOS(=O)(=O)c2ccc(Br)cc2)c(Br)c1 [Sulfate, 3-(2-Bromo-4-(guanidinomethyl)phenoxy)propyl 4-bromobenzenesulfonate, sulfuric acid salt]
Hygroscopicity [7]: Hygroscopic | Thermal stability, First event at [9]: 103 °C

Compound: N=C(N)NCc1ccc(OCCCOS(=O)(=O)c2ccc(Br)cc2)c(Br)c1.O=C(O)C(F)(F)F [Trifluoroacetate, 3-(2-Bromo-4-(guanidinomethyl)phenoxy)propyl 4-bromobenzenesulfonate, trifluoroacetate salt]
Hygroscopicity [7]: Slight | Stability to GVS and 40° C./75% RH [8]: Stable | Thermal stability, First event at [9]: 142 °C | solubility [5]: 4.68 mg/mL

Effect on imaging agent-1 uptake (NET [10]): no effect
Compound: C[C@H](CS)C(=O)N1CCC[C@H]1C(=O)O [captopril]
